The numbers were not newly measured in patent US7053240B2, “Process for synthesizing disulfides” (BioNumerik Pharmaceuticals, Inc., priority 2003, dated 2006), which cites them from elsewhere.

For one data set, the system named is dogs. To be noted: intravenously, doses higher than 3750 mg/kg.
In another data set the test system is mice. The settings on record: intravenously, doses higher than 3750 mg/kg.
For data set [1] the following is noted: accepted value.

In the case of `O=S(=O)(O)CCSSCCS(=O)(=O)O` [Dimesna, disodium 2,2′-dithiobis ethane sulfonate], the adverse effects result with dogs and in the data set on mice was “no adverse effects” each time.
As for `[Cl-].[Na+]` [common table salt], the “oral LD50” value in data set [1] is 3750 mg/kg.
